{"source": "patent US5866577A", "about": "“Aromatic amidine derivatives and salts thereof” (priority 1991, dated 1999)", "key": {"[1]": {"tested_on": "human blood plasma (clotting time)", "test": "Measurement of Anticoagulant Activity (plasma clotting time, CT2)", "assay_type": "biochemical", "details": "concentration which doubles the control clotting time, 37° C.", "description": "Measurement of Anticoagulant Activity A blood plasma sample was prepared from human blood using a centrifuge. […] Thereafter, clotting time was measured using CLOTEC (Sanko Junyaku Co., Ltd.). A clotting time measured without adding a compound to be tested was used as a control, and a concentration of the test compound which doubles the control clotting time was calculated (hereinafter referred to as \"CT2\") as an index of the anticoagulant activity."}, "male Slc:SD rats [2]": {"tested_on": "male Slc:SD rats", "test": "Toxicity Test by Single Oral Administration to Rat", "details": "in vivo"}, "male Slc:SD rats [3]": {"tested_on": "male Slc:SD rats", "test": "Toxicity Test by Repeated Oral Administration to Rat", "assay_type": "in vivo", "description": "Toxicity Test by Repeated Oral Administration to Rat\nEach of the compounds of the present invention was dissolved in distilled water and administered orally to each of five five-week old male Slc:SD rats, at a dose of 800 mg/kg body weight. The oral administration was carried out once a day and repeated for 10 days to observe mortality."}, "[4]": {"tested_on": "thrombus formed on copper wire in arteriovenous shunt", "test": "Antithrombotic Effect by Oral Administration to Rat in an Arteriovenous Shunt Model", "assay_type": "in vivo, male STD:Wistar rat", "details": "for Thrombus formed: mean ± S.E. (n = 6), p < 0.05 per control", "description": "Antithrombotic Effect by Oral Administration to Rat in an Arteriovenous Shunt Model\nAmtithrombotic effect by oral administration of the compound of the present invention was measured by slightly modifying the procedure disclosed in Thrombosis Research, vol. 54, pp. 399-410, 1989.\nA predetermined amount of a compound to be tested was dissolved in purified water and administered orally to a male STD:Wistar rat, and the rat was anesthetized 15 minutes after the administration. An artery clip was attached to proximally the carotid artery of the thus anesthetized rat to stop blood circulation and to insert and fix an end of a shunt filled with physiological saline, while the other end of the shunt was inserted into the jugular vein and fixed. In this instance, the shunt was prepared by indwelling a copper wire (0.17 mm in diameter and 20 cm in length) in a polyethylene tube (Hibiki No. 5; 5/3 mm in outer diameter and 21 cm in length) and connecting each end of the tube with a polyethylene tube (Hibiki No. 3; 1 mm in outer diameter and 3 cm in length) using a 3 mm silicone tube. After 30 minutes of the administration, the artery clip was removed to flow blood into the shunt. After 7 minutes of the blood recirculation, the copper wire was pulled out together with formed thrombus and washed with 10 ml of physiological saline. Thereafter, the amount of thrombus formed on the copper wire was determined as protein in accordance with the procedure disclosed in Journal of Biological Chemistry, vol. 193, pp. 265-275, 1951. As a control, water was administered instead of the compound to be tested to calculate thrombosis inhibition rate after administration of the compound."}, "[5]": {"test": "Measurement of Solubility in Water", "method": "A fixed amount of water was added to a varying amounts of each sample, and the mixture was agitated on a shaker at 25° C. for 10 minutes."}, "human FXa": {"molecular_target": "human FXa (Homo sapiens, UniProt P00742)", "sequence (P00742 235-488 limits assumed)": "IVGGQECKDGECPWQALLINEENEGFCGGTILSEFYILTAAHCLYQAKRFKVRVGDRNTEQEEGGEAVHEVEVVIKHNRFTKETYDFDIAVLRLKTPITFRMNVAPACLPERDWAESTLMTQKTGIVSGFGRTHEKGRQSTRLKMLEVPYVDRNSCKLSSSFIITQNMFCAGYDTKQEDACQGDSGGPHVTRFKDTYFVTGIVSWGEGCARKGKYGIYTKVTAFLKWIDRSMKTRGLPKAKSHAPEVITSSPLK", "sequence (P00742 41-179 limits assumed)": "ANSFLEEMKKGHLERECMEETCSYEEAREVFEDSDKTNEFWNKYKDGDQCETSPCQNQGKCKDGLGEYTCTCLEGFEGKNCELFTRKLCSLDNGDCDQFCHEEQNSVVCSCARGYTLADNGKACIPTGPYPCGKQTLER", "test": "Measurement of Activated Blood Coagulation Factor X (FXa) Inhibition Activity", "assay_type": "biochemical", "details": "substrate S-2222, 37° C., 15 minutes", "description": "Measurement of Activated Blood Coagulation Factor X (FXa) Inhibition Activity\nA 180 μl portion of physiological saline solution containing a compound to be tested was mixed with 200 μl of Tris-HCl buffer (pH 8.4) and 100 μl of 1 mM S-2222 (KabiVitrum AB) aqueous solution, and the mixture was incubated at 37° C. 20 μl of Tris-HCl buffered saline (pH 7.45) containing 0.6 unit/ml of human FXa was added to the mixture. After 15 minutes of incubation at the same temperature, the reaction was stopped by adding 100 μl of 60% acetic acid, and absorbance of the reaction mixture was measured. A reaction mixture with no addition of a test compound was used as a blank, and another reaction mixture in which 60% acetic acid was added prior to the addition of FXa was used as a control."}, "[6]": {"details": "prior-art statement; cited from earlier work"}, "anticoagulant effect": {"tested_on": "anticoagulant effect", "details": "oral; prior-art statement; cited from earlier work"}, "FXa and thrombin": {"tested_on": "FXa and thrombin", "details": "prior-art statement; cited from earlier work"}, "[7]": {"test": "Solubility observed in preparation (solubility to any solvent)", "assay_type": "physicochemical", "details": "hydrochloride monohydrate"}, "thrombin": {"molecular_target": "T1, thrombin (Bos taurus, UniProt P00735)", "T1 construct": "thrombin (for topical application use, Sankyo Co., Ltd.); purchased Sankyo Co., Ltd", "test": "Measurement of Thrombin Inhibition Activity", "assay_type": "biochemical", "description": "Measurement of Thrombin Inhibition Activity\nA 100 μl portion of Tris-HCl buffered saline (pH 7.45) (TBS) containing 6 mg/ml of fibrinogen (Type 1, Daiichi Pure Chemicals Co., Ltd.) was mixed with 100 μl of physiological saline solution. At 37° C., 100 μl of Tris-HCl buffered saline (pH 7.45) (TBS) containing varying amounts of thrombin (for topical application use, Sankyo Co., Ltd.) was added to the mixture prepared above to measure clotting time using CLOTEC (Sanko Junyaku Co., Ltd.) and to prepare a calibration curve."}, "[8]": {"tested_on": "activated partial thromboplastin time (APTT)", "test": "Measurement of Anticoagulant Activity in Oral Administration (APTT)", "assay_type": "in vivo, male STD:Wistar rat", "details": "rat, 100 mg/kg", "description": "Measurement of Anticoagulant Activity in Oral Administration\nAn aqueous solution of each compound to be tested was administered orally to each male STD:Wistar rat individual under an anesthetic, at a dose of 10 ml/kg body weight. Blood samples were collected periodically and blood plasma preparations were obtained from the samples to measure activated partial thromboplastin time (APTT). In the same manner, APTT was measured by administering pure water and used as a control. A test/control APTT ratio was calculated and used as an index of the anticoagulant activity."}, "[9]": {"details": "oral 800 mg/kg once a day for 10 days, 5 rats administered"}}, "note": "Where a name gives a salt, the structure may show the parent alone."}
{"smiles": "CC(=N)N1CC[C@H](Oc2ccc(C(Cc3ccc4ccc(C(=N)N)cc4c3)C(=O)O)cc2)C1.Cl.O.O.O.O.O", "note": "(single isomer, unassigned; (+)) [Inventive Example 45]", "values": [{"measurement": "Anti-Coagulation CT2", "setting": "[1]", "value": 0.49, "unit": "µM"}, {"measurement": "mortality", "setting": "male Slc:SD rats [2]", "value": "No mortal case"}, {"measurement": "Mortal Case", "setting": "male Slc:SD rats [3]; [9]", "value": 0}, {"measurement": "Thrombosis inhibition", "setting": "[4]; 10 mg/kg", "value": 34, "unit": "%"}, {"measurement": "Thrombus formed", "setting": "[4]; 10 mg/kg", "value": "585 ± 85", "unit": "µg"}, {"measurement": "Thrombosis inhibition", "setting": "[4]; 30 mg/kg", "value": 60, "unit": "%"}, {"measurement": "Thrombus formed", "setting": "[4]; 30 mg/kg", "value": "356 ± 51", "unit": "µg"}, {"measurement": "solubility at 10 min", "setting": "[5]", "value": "≥ 200", "unit": "mg/mL"}]}
{"smiles": "N=C(N)c1ccc2oc(CCc3cc4cc(C(=N)N)ccc4o3)cc2c1", "note": "[DABE, 1,2-bis(5-amidino-2-benzofuranyl)ethane, reference compound]", "values": [{"measurement": "Anti-Coagulation CT2", "setting": "[1]", "value": 1.6, "unit": "µM"}, {"measurement": "IC50", "setting": "human FXa", "value": 95, "unit": "nM"}, {"measurement": "water solubility (in words)", "setting": "[6]", "value": "very low water solubility"}, {"measurement": "anticoagulant effect when administered orally (in words)", "setting": "anticoagulant effect", "value": "does not show its anticoagulant effect when administered orally"}, {"measurement": "separation of FXa and thrombin inhibitory activities (in words)", "setting": "FXa and thrombin", "value": "cannot be separated sufficiently from each other"}, {"measurement": "solubility at 10 min", "setting": "[5]", "value": "≤ 5", "unit": "mg/mL"}]}
{"smiles": "Cl.N=C(N)c1ccc2ccc(CC(C(=O)O)c3ccc(OCC4CCNCC4)cc3)cc2c1.O", "note": "(centres unmarked) [Inventive Example 18, 3-(7-amidino-2-naphthyl)-2-[4-[(4-piperidinyl)methoxy]-phenyl]propionic Acid Hydrochloride Monohydrate]", "values": [{"measurement": "solubility to any solvent (in words)", "setting": "[7]", "value": "very low"}]}
{"smiles": "Cl.Cl.N=C(N)c1ccc2oc(CC(C(=O)O)c3ccc(O[C@H]4CCNC4)cc3)cc2c1", "note": "(stereo partly drawn) [Inventive Example 19, 3-(5-amidino-2-benzofuranyl)-2-[4-[((3S)-3-pyrrolidinyl)-oxy]phenyl]propionic Acid Dihydrochloride]", "values": [{"measurement": "Mortal Case", "setting": "male Slc:SD rats [3]; [9]", "value": 0}, {"measurement": "solubility at 10 min", "setting": "[5]", "value": "≥ 450", "unit": "mg/mL"}]}
{"smiles": "Cl.Cl.N=C(N)c1ccc2sc(CC(C(=O)O)c3ccc(O[C@H]4CCNC4)cc3)cc2c1", "note": "(stereo partly drawn) [Inventive Example 25, 3-(5-amidinobenzo[b]thien-2-yl)-2-[4-[((3S)-3-pyrrolidin-yl)oxy]phenyl]propionic Acid Dihydrochloride]", "values": [{"measurement": "Mortal Case", "setting": "male Slc:SD rats [3]; [9]", "value": 0}, {"measurement": "solubility at 10 min", "setting": "[5]", "value": "≥ 500", "unit": "mg/mL"}]}
{"smiles": "Cl.Cl.N=C(N)c1ccc2cc(CC(C(=O)O)c3ccc(O[C@H]4CCNC4)cc3)[nH]c2c1", "note": "(stereo partly drawn) [Inventive Example 69, 3-(6-amidino-2-indolyl)-2-[4-[((3S)-3-pyrrolidinyl)oxy]-phenyl]propionic Acid Dihydrochloride]", "values": [{"measurement": "Mortal Case", "setting": "male Slc:SD rats [3]; rat, in vivo, po, 800 mg/kg", "value": 0}]}
{"smiles": "CC(=N)N1CC[C@H](Oc2ccc(C(Cc3cc4cc(C(=N)N)ccc4s3)C(=O)O)cc2)C1", "note": "(stereo partly drawn) [Inventive Example 88, 2-[4-[((3S)-1-acetimidoyl-3-pyrrolidinyl)oxy]phenyl]-3-(5-amidinobenzo[b]thien-^2-yl)propionic Acid Dihydrochloride]", "values": [{"measurement": "Mortal Case", "setting": "male Slc:SD rats [3]; [9]", "value": 0}]}
{"smiles": "CC(=N)N1CCC(Oc2ccc(C(Cc3ccc4ccc(C(=N)N)cc4c3)C(=O)O)cc2)CC1.Cl.Cl", "note": "(centres unmarked) [Inventive Example 108, 2-[4-[(1-acetimidoyl-4-piperidinyl)oxy]phenyl]-3-(7-amidino-2-naphthyl)propionic Acid Dihydrochloride]", "values": [{"measurement": "Anti-Coagulation CT2", "setting": "[1]", "value": 0.3, "unit": "µM"}, {"measurement": "IC50", "setting": "human FXa", "value": 18, "unit": "nM"}, {"measurement": "IC50", "setting": "thrombin", "value": 250000, "unit": "nM"}, {"measurement": "Test/Control APTT Ratio", "setting": "[8]; 0.5 hr", "value": 2.12}, {"measurement": "Test/Control APTT Ratio", "setting": "[8]; 1 hr", "value": 2.18}, {"measurement": "Test/Control APTT Ratio", "setting": "[8]; 2 hr", "value": 1.69}, {"measurement": "Test/Control APTT Ratio", "setting": "[8]; 4 hr", "value": 1.39}, {"measurement": "solubility at 10 min", "setting": "[5]", "value": "≥ 350", "unit": "mg/mL"}]}
